Measurements taken from article PMC6368403, “Identification of a bilirubin receptor that may mediate a component of cholestatic itch” (eLife, 2019).
“And” between values parts separate entries of the source, which are not always exact repeats. Equal values may be shown once.

Columns and labels:
mice [1] = assay: Scratching bouts after subcutaneous injection into the nape of the neck / back; type: in vivo, mouse; conditions: for Scratching bouts binned according to 5 min intervals (time course of itch behavior): one column per mouse, values of a mouse sum to 1 (Fig 1B)
Description: (§1) All applicable behavioral tests were performed and analysed with the experimenter blind to genotype. […] On the day before the experiment, animals were placed in the test chamber for 30 min before being subjected to a series of three mock injections with 5 min break periods in between. On the day of the experiment, animals were first allowed to acclimatize to the test chamber for 10 min before injection. […] A bout of scratching was defined as a continuous scratching movement with either hindpaw directed at the area of the injection site. In the cheek injection model, a wipe was defined as a single forepaw stroking the site of the injection. Use of both forepaws on the face or cheek was considered as grooming behavior. […] For H1R block, 30 mg/kg of cetirizine HCl (pH 7.4) was given intraperitoneally thirty minutes prior to injection of bilirubin. Licking behavior was quantified in seconds and identified as the licking of the toes or footpad of the hind paw site of injection that was neither preceded nor followed by licking of any other portion of the body.

mice [2] = assay: Cheek injection model: scratching bouts and wiping; type: in vivo, mouse
Description: as §1, with “genotype. […] There were no significant differences in itch between male and female mice.” for “genotype.”

Mrgprs = assay: Ca2+ imaging screen of HEK293 cells transiently expressing other Mrgprs (MRGPRA3, MRGPRD, MRGPRX1, MRGPRX2 and others); type: cell-based; conditions: 50 µM bilirubin, 12 Mrgprs screened
Description: All cultured cells were maintained in DMEM supplemented with 10% FBS and 1% Penicillin/Streptomycin at 37°C, 5% CO2. All data included were generated from cells tested for mycoplasma and found to be negative. Cells were imaged in calcium imaging buffer (CIB; 10 mM HEPES, 1.2 mM NaHCO3, 130 mM NaCl, 3 mM KCl, 2.5 mM CaCl2, 0.6 mM MgCl2, 20 mM glucose, and 20 mM sucrose at pH 7.4 and 290–300 mOsm). To monitor changes in intracellular [Ca^2+] ([Ca^2+]i), cells were loaded with either Fura 2-AM (HEK293 cells) or Fluo 4-AM (DRG neurons and mast cells) for 30 min in the dark at 37°C in CIB just prior to imaging. With Fura 2-AM, emission at 510 nm was monitored from excitation at both 340 nm and 380 nm. With Fluo 4-AM, emission at 520 nm was monitored from excitation at 488 nm. Cells were identified as responding if the intracellular [Ca^2+] rose by either 50% compared to baseline or 50% compared to the [Ca^2+]i change assayed during addition of 50 mM KCl (neurons only). […]
In initial screens, HEK293 cells stably expressing the murine G-protein alpha-subunit Gα15, a unique Gα protein that non-selectively couples a large variety of GPCRs to phospholipase C ^30, were plated on poly-D-lysine-coated coverslips and transiently transfected with constructs encoding the MRGRPR of interest. […] Response was then monitored at 5 s intervals for an additional 60 s.

MRGPRX4 = biological target: T1, MRGPRX4 (Homo sapiens, UniProt Q96LA9); assay: Microscale thermophoresis binding to MRGPRX4; parameters: microscale thermophoresis response (binding isotherm), mean: unit not given here; conditions: for microscale thermophoresis response (binding isotherm), mean: mean of n=3, Fig 2-J; for Binding to MRGPRX4: microscale thermophoresis
T1 construct: expressed in transfected cells
Description: Binding isotherms for MRGPRA1, MRGPRX4, and MRGRPC11 towards various ligands were determined by microscale thermophoresis with the NanoTemper monolith NT.115 instrument ([Duhr and Braun, 2006]). Ligands were pre-incubated with 10 µM of the GFP-tagged receptor of interest for 5 min at room temperature in binding buffer (20 mM Tris and 150 mM NaCl at pH 8.8). Receptors were crudely purified as a membrane fraction from cells stably expressing the receptor ([Vasavda et al., 2017]). Haem metabolites were freshly dissolved in 0.1 M NaOH in dim light and then diluted into assay buffer. Lyophilized BAM8-22 was dissolved in binding buffer. The pH of each ligand was evaluated prior to incubation with a receptor. Samples were loaded into NT.115 Hydrophobic-Treated Capillaries from NanoTemper. Microscale thermophoretic experiments were executed using 20% LED power and 15% MST power. KDs were calculated using the law of mass action with data from three independent experiments. Binding between bilirubin and receptors was evaluated purely thermophoretically, whereas binding between BAM8-22 and MRGPRC11 was evaluated by T-Jump. Samples with dramatic deviations in initial fluorescence were excluded.

T1 sequence (Q96LA9 whole entry): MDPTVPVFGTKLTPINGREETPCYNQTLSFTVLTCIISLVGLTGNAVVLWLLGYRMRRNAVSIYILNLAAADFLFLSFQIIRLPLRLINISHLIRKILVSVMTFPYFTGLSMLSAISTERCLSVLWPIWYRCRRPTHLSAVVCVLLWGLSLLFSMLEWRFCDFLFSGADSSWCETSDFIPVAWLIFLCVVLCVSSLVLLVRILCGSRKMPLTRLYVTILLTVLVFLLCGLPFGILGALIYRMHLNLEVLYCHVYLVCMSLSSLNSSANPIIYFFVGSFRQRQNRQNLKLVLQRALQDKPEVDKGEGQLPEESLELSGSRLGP

microscale thermophoresis response (binding isotherm), mean (MRGPRX4; [Ligand] 3.05e-8 M) | microscale thermophoresis response (binding isotherm), mean (MRGPRX4; [Ligand] 6.1e-8 M) | microscale thermophoresis response (binding isotherm), mean (MRGPRX4; [Ligand] 1.221e-7 M) | microscale thermophoresis response (binding isotherm), mean (MRGPRX4; [Ligand] 2.441e-7 M) | microscale thermophoresis response (binding isotherm), mean (MRGPRX4; [Ligand] 4.883e-7 M) | microscale thermophoresis response (binding isotherm), mean (MRGPRX4; [Ligand] 9.766e-7 M) | microscale thermophoresis response (binding isotherm), mean (MRGPRX4; [Ligand] 1.9531e-6 M) | microscale thermophoresis response (binding isotherm), mean (MRGPRX4; [Ligand] 3.9063e-6 M) | microscale thermophoresis response (binding isotherm), mean (MRGPRX4; [Ligand] 7.8125e-6 M) | microscale thermophoresis response (binding isotherm), mean (MRGPRX4; [Ligand] 1.5625e-5 M) | microscale thermophoresis response (binding isotherm), mean (MRGPRX4; [Ligand] 3.125e-5 M) | microscale thermophoresis response (binding isotherm), mean (MRGPRX4; [Ligand] 6.25e-5 M) | microscale thermophoresis response (binding isotherm), mean (MRGPRX4; [Ligand] 0.000125 M) | microscale thermophoresis response (binding isotherm), mean (MRGPRX4; [Ligand] 0.00025 M) | microscale thermophoresis response (binding isotherm), mean (MRGPRX4; [Ligand] 0.0005 M) | microscale thermophoresis response (binding isotherm), mean (MRGPRX4; [Ligand] 0.001 M) | Compound | Binding to MRGPRX4 (MRGPRX4) | further results
7.584 | 6.444 | 6.442 | 4.051 | -2.46 | -5.393 | 5.84 | 1.017 | 9.66 | 19.4349 | 35.6519 | 68.0309 | 97.8035 | 117.52 | 123.698 | 119.096 | C=CC1=C(C)/C(=C/c2[nH]c(Cc3[nH]c(/C=C4\NC(=O)C(C)=C4C=C)c(C)c3CCC(=O)O)c(CCC(=O)O)c2C)NC1=O [bilirubin, bilirubin IXα] | – | Scratching bouts (mice [1]; 60 μg bilirubin pre-incubated with 1% human serum albumin (+HSA), nape, WT mice (Fig 1A)): 7; Scratching of A1 KO animals versus WT mice (mice [1]; 60 µg injected): scratched significantly less than WT mice; Scratching of BVR KO mice (mice [1]; 150 µg chloroquine or 60 µg bilirubin, 30 min): scratched normally; Scratching bouts to chloroquine plus bilirubin (mice [1]; 1 mM chloroquine plus 500 µM bilirubin injected into back): Synergism of bilirubin with chloroquine pruritus; Less scratching of Mrgpr-cluster KO animals than wild type mice (mice [1]; bilirubin injection (Fig 1C)): approximately 75%; Scratching (mice [1]; bilirubin pre-incubated with excess human serum albumin): elicited fewer scratches; Scratching at the site of injection (mice [1]; pathophysiologic concentrations, s.c. into the nape): stimulated scratching in a dose-dependent manner; Scratching bouts binned according to 5 min intervals (time course of itch behavior) (mice [1]; time 5 min): 0 (10×) and 0.09677 and 0.08333 and 0.1304 and 0.2264 and 0.2353 and 0.07317; Scratching bouts binned according to 5 min intervals (time course of itch behavior) (mice [1]; time 10 min): 0.1786 and 0.5556 and 0.32 and 0.3226 and 0 (4×) and 0.1304 and 0.04 and 0.15 and 0.2642 and 0.1026 and 0.3529 and 0.2941 and 0.05128; Scratching bouts binned according to 5 min intervals (time course of itch behavior) (mice [1]; time 15 min): 0.25 and 0.4444 and 0.32 and 0.2258 and 0.1667 and 0.3913 and 0.66 and 0.1 and 0.1698 and 0.5116 and 0.2051 and 0.5 and 0.2941 and 0.2647 and 0.1951 and 0.2308; Scratching bouts binned according to 5 min intervals (time course of itch behavior) (mice [1]; time 20 min): 0.07143 and 0 (2×) and 0.16 and 0.06452 and 0.08333 and 0.3043 and 0.1 and 0.45 and 0.1509 and 0.4419 and 0.4872 and 0.1364 and 0.08824 and 0.2195 and 0.1026; Scratching bouts binned according to 5 min intervals (time course of itch behavior) (mice [1]; time 25 min): 0.07143 and 0 (3×) and 0.2 and 0.03226 and 0.3333 and 0.04348 and 0.06 and 0.15 and 0.04651 and 0.2727 and 0.1765 and 0.05882 and 0.3659 and 0.6154; Scratching bouts binned according to 5 min intervals (time course of itch behavior) (mice [1]; time 30 min): 0.4286 and 0 (5×) and 0.2581 and 0.3333 and 0.14 and 0.15 and 0.1887 and 0.2051 and 0.09091 and 0.1765 and 0.05882 and 0.1463; Wiping (mice [2]; 6 µg bilirubin into the cheek, 10 min): neither wiping; Scratching after cheek injection (mice [2]; cheek, 10 µl, 30 min): prompted dose-dependent scratching; Calcium response of other Mrgprs to bilirubin (Mrgprs): No other Mrgpr among the 12 that we screened responded
14.6332 | -0.3949 | -3.186 | 10.7277 | 1.18 | 3.799 | 8.125 | 1.993 | 2.933 | -0.662 | 8.64 | 18.6992 | 39.4499 | 46.5687 | 49.0399 | 52.0554 | C=CC1=C(C)/C(=C/c2[nH]c(Cc3[nH]c(/C=C4\NC(=O)C(C)=C4C=C)c(C)c3CCC(=O)NCCS(=O)(=O)O)c(CCC(=O)NCCS(=O)(=O)O)c2C)NC1=O [conjugated bilirubin, bilirubin ditaurate] | lower affinity than unconjugated bilirubin | –
0 | 0 | 0 | 0 | 0 | 0 | 0 | 0 | 0 | 0 | 0 | 0 | 0 | 0 | 0 | – | hemin | did not bind | Scratching behavior (mice [1]; metabolite injected into mice (Fig 1D)): did not induce scratching
